Assay results reported in patent US20080268078A1, “Composition for inhibiting nitric oxide and/or prostaglandin E2 synthesis and method for inhibiting inflammation” (Yangsen Biotechnology Co., Ltd., priority 2007, published 2008).
Read-outs that look alike come from different tables or passages of the source.

What was measured:
Type in all cases: cell-based, murine
[1] = system: prostaglandin E2 synthesis in RAW 264.7 cells; experiment: Suppression of prostaglandin E2 synthesis (EIA) in LPS-stimulated RAW 264.7 cells; settings: Mus musculus, read-out: IC50 of prostaglandin E2 synthesis
Description: (§1) The murine macrophage/monocyte RAW 264.7 cells were obtained from the American Type Culture Collection (ATCC) and maintained in Dulbecco's modified Eagle's medium (DMEM) with 10% fetal bovine serum at 37° C. in 5% CO2 humidified air. In this example, cells were plated at a density of 10^6 cells/ml in 96-well plates for 24 hours, and then stimulated with LPS (100 ng/ml) in the presence of different concentrations of butylidene phthalide, citronellol, or geraniol. After 20 hours, the supernatant of the medium was collected and analyzed. In nitric oxide analysis, the concentration of butylidene phthalide was 250 μM, 500 μM, and 1000 μM, the concentration of citronellol was 50 μM, 500 μM, and 750 μM, and the concentration of geraniol was 50 μM, 500 μM, 750 μM, and 1000 μM, separately. In the control group, the cells were not treated with butylidene phthalide, citronellol, or geraniol. Because nitric oxide was unstable, nitrite was detected (Green et al., 1981; Kang et al., 1999a). 80 μl of the culture medium were mixed with an equal volume of Griess reagent (0.1% naphthylethylenediamine dihydrochloride and 1% sulfanilamide in 5% phosphoric acid), and then the absorbance at 550 nm was measured. The nitrite concentration was determined using a curve calibrated on sodium nitrite standards. […] Referring to FIGS. 1a-1c, butylidene phthalide, citronellol, and geraniol can suppress the synthesis of nitric oxide, wherein the suppression ability of citronellol was better than butylidene phthalide or geraniol, separately.
The same procedure carried out in Example 1 was repeated with the exception that the detection of the nitric oxide was changed to detect prostaglandin E2 by prostaglandin E2-monoclonal enzyme immunoassay kit (EIA, Cayman Chem., Ann Arbor, Mich.). The concentration of butylidene phthalide was 5 μM, 50 μM, 250 μM, 500 μM, and 1000 μM, the concentration of citronellol was 50 μM, 500 μM, and 750 μM and the concentration of geraniol was 50 μM, 500 μM, and 750 μM, separately. […]

[2] = system: nitric oxide synthesis in RAW 264.7 cells; experiment: Suppression of nitric oxide synthesis (nitrite, Griess reagent) in LPS-stimulated RAW 264.7 cells; settings: Mus musculus, read-out: IC50 (inhibitory concentration at 50%) of nitric oxide synthesis
Description: as §1

RAW264.7 cell = experiment: Cell viability assay (MTT); settings: 50 μM to 1000 μM (citronellol to 750 μM), LPS-stimulated, 20 hours
[3] = RAW264.7, RAW 264.7 cells, LPS 100 ng/ml, 20 hours, PGE2 EIA kit
[4] = RAW264.7, RAW 264.7 cells, LPS 100 ng/ml, 20 hours, nitrite by Griess reagent

SMILES | IC50 [1, 3] [µM] | IC50 [2, 4] [µM] | RAW264.7 cell viability by MTT assay (RAW264.7 cell) | IC50 ([1]; RAW264.7, 20 h) [µM] | IC50 ([2]; RAW264.7, 20 h) [µM]
CC(C)=CCC/C(C)=C/CO [geraniol] | 372 | 403 | – | – | –
CC(C)=CCCC(C)CCO (stereo not shown) [citronellol] | 26.9 | 295 | – | – | –
CCCC=C1OC(=O)c2ccccc21 [butylidene phthalide] | – | – | did not affect cell viability | 49.6 | 406
